Reference: PubChem BioAssay (NCI)
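Protocol summary: plate cells (96-well), add compound at 5 concentrations, incubate 48 h, interpolate endpoints linearly. At the TGI there is no net growth.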

Legend:
Test in all cases: inhibition of tumour cell growth, NCI panel, 48 h
LOX IMVI melanoma = test system: LOX IMVI melanoma
SN12C renal = test system: SN12C renal
KM12 colon = test system: KM12 colon
SNB-19 CNS = test system: SNB-19 CNS
LXFL 529 NSCLC = test system: LXFL 529 NSCLC
SNB-78 CNS = test system: SNB-78 CNS
DLD-1 colon = test system: DLD-1 colon
NCI-H23 lung = test system: NCI-H23 lung
NCI-H226 lung = test system: NCI-H226 lung
OVCAR-8 ovarian = test system: OVCAR-8 ovarian
SF-539 CNS = test system: SF-539 CNS
RPMI-8226 leukemia = test system: RPMI-8226 leukemia
OVCAR-5 ovarian = test system: OVCAR-5 ovarian
EKVX NSCLC = test system: EKVX NSCLC
HCC-2998 colon = test system: HCC-2998 colon
SR leukemia = test system: SR leukemia
HOP-62 NSCLC = test system: HOP-62 NSCLC
HL-60(TB) leukemia = test system: HL-60(TB) leukemia
SW-620 colon = test system: SW-620 colon
UO-31 renal = test system: UO-31 renal
IGROV1 ovarian = test system: IGROV1 ovarian
CCRF-CEM leukemia = test system: CCRF-CEM leukemia
OVCAR-3 ovarian = test system: OVCAR-3 ovarian
CAKI-1 renal = test system: CAKI-1 renal
M14 melanoma = test system: M14 melanoma
UACC-62 melanoma = test system: UACC-62 melanoma
RXF-631 renal = test system: RXF-631 renal
SK-MEL-2 melanoma = test system: SK-MEL-2 melanoma
M19-MEL melanoma = test system: M19-MEL melanoma
NCI-H460 lung = test system: NCI-H460 lung
ACHN renal = test system: ACHN renal
OVCAR-4 ovarian = test system: OVCAR-4 ovarian
KM20L2 colon = test system: KM20L2 colon
A549 NSCLC = test system: A549 NSCLC
DMS 114 small cell lung = test system: DMS 114 small cell lung
XF 498 CNS = test system: XF 498 CNS
HCT-15 colon = test system: HCT-15 colon
HOP-18 NSCLC = test system: HOP-18 NSCLC
RXF 393 renal = test system: RXF 393 renal
MOLT-4 leukemia = test system: MOLT-4 leukemia
HOP-92 NSCLC = test system: HOP-92 NSCLC
SF-268 CNS = test system: SF-268 CNS
K-562 leukemia = test system: K-562 leukemia
MALME-3M melanoma = test system: MALME-3M melanoma
786-0 renal = test system: 786-0 renal
DMS 273 small cell lung = test system: DMS 273 small cell lung
SK-MEL-28 melanoma = test system: SK-MEL-28 melanoma
SK-MEL-5 melanoma = test system: SK-MEL-5 melanoma
UACC-257 melanoma = test system: UACC-257 melanoma
A498 renal = test system: A498 renal
HT29 colon = test system: HT29 colon
SNB-75 CNS = test system: SNB-75 CNS
SF-295 CNS = test system: SF-295 CNS
TK-10 renal = test system: TK-10 renal
HCT-116 colon = test system: HCT-116 colon
NCI-H522 lung = test system: NCI-H522 lung
COLO 205 colon = test system: COLO 205 colon
SK-OV-3 ovarian = test system: SK-OV-3 ovarian
U251 CNS = test system: U251 CNS
MCF7 breast = test system: MCF7 breast
DU-145 prostate = test system: DU-145 prostate
BT-549 breast = test system: BT-549 breast
NCI/ADR-RES ovarian = test system: NCI/ADR-RES ovarian
PC-3 prostate = test system: PC-3 prostate
T-47D breast = test system: T-47D breast
MDA-MB-435 = test system: MDA-MB-435
HS 578T breast = test system: HS 578T breast

## CCC1C(=O)OCc2c1cc1n(c2=O)Cc2ccccc2-1 (stereo not drawn)
LOX IMVI melanoma
  TGI: > 100 µM
SN12C renal
  TGI: > 100 µM
KM12 colon
  TGI: > 100 µM
SNB-19 CNS
  TGI: > 100 µM
LXFL 529 NSCLC
  TGI: > 100 µM
SNB-78 CNS
  TGI: > 100 µM
DLD-1 colon
  TGI: > 100 µM
NCI-H23 lung
  TGI: > 100 µM
NCI-H226 lung
  TGI: > 100 µM
OVCAR-8 ovarian
  TGI: > 100 µM
SF-539 CNS
  TGI: > 100 µM
RPMI-8226 leukemia
  TGI: > 100 µM
OVCAR-5 ovarian
  TGI: > 100 µM
EKVX NSCLC
  TGI: > 100 µM
HCC-2998 colon
  TGI: > 100 µM
SR leukemia
  TGI: > 100 µM
HOP-62 NSCLC
  TGI: > 100 µM
HL-60(TB) leukemia
  TGI: > 100 µM
SW-620 colon
  TGI: > 100 µM
UO-31 renal
  TGI: > 100 µM
IGROV1 ovarian
  TGI: > 100 µM
CCRF-CEM leukemia
  TGI: > 100 µM
OVCAR-3 ovarian
  TGI: > 100 µM
CAKI-1 renal
  TGI: > 100 µM
M14 melanoma
  TGI: > 100 µM
UACC-62 melanoma
  TGI: > 100 µM
RXF-631 renal
  TGI: > 100 µM
SK-MEL-2 melanoma
  TGI: > 100 µM
M19-MEL melanoma
  TGI: > 100 µM
NCI-H460 lung
  TGI: > 100 µM
ACHN renal
  TGI: > 100 µM
OVCAR-4 ovarian
  TGI: > 100 µM
KM20L2 colon
  TGI: > 100 µM
A549 NSCLC
  TGI: > 100 µM
DMS 114 small cell lung
  TGI: > 100 µM
XF 498 CNS
  TGI: > 100 µM
HCT-15 colon
  TGI: > 100 µM
HOP-18 NSCLC
  TGI: > 100 µM
RXF 393 renal
  TGI: > 100 µM
MOLT-4 leukemia
  TGI: > 100 µM
HOP-92 NSCLC
  TGI: > 100 µM
SF-268 CNS
  TGI: > 100 µM
K-562 leukemia
  TGI: > 100 µM
MALME-3M melanoma
  TGI: > 100 µM
786-0 renal
  TGI: > 100 µM
DMS 273 small cell lung
  TGI: > 100 µM
SK-MEL-28 melanoma
  TGI: > 100 µM
SK-MEL-5 melanoma
  TGI: > 100 µM
UACC-257 melanoma
  TGI: > 100 µM
A498 renal
  TGI: > 100 µM
HT29 colon
  TGI: > 100 µM
SNB-75 CNS
  TGI: > 100 µM
SF-295 CNS
  TGI: > 100 µM
TK-10 renal
  TGI: > 100 µM
HCT-116 colon
  TGI: > 100 µM

## Cc1cc(N)c2cc(NC(=O)CCCCCCCCC(=O)Nc3ccc4nc(C)cc(N)c4c3)ccc2n1
LOX IMVI melanoma
  TGI: > 100 µM
SN12C renal
  TGI: 26.6 µM
KM12 colon
  TGI: > 68.4 µM
SNB-19 CNS
  TGI: > 100 µM
LXFL 529 NSCLC
  TGI: > 100 µM
SNB-78 CNS
  TGI: > 100 µM
DLD-1 colon
  TGI: > 100 µM
NCI-H23 lung
  TGI: > 100 µM
NCI-H226 lung
  TGI: 56.3 µM
OVCAR-8 ovarian
  TGI: > 100 µM
SF-539 CNS
  TGI: 26.5 µM
RPMI-8226 leukemia
  TGI: > 100 µM
OVCAR-5 ovarian
  TGI: > 100 µM
EKVX NSCLC
  TGI: > 89 µM
HCC-2998 colon
  TGI: > 82.9 µM
SR leukemia
  TGI: > 100 µM
HOP-62 NSCLC
  TGI: > 100 µM
HL-60(TB) leukemia
  TGI: > 100 µM
SW-620 colon
  TGI: > 100 µM
UO-31 renal
  TGI: > 100 µM
IGROV1 ovarian
  TGI: > 100 µM
CCRF-CEM leukemia
  TGI: > 61.3 µM
OVCAR-3 ovarian
  TGI: > 100 µM
CAKI-1 renal
  TGI: > 100 µM
M14 melanoma
  TGI: > 100 µM
UACC-62 melanoma
  TGI: > 100 µM
SK-MEL-2 melanoma
  TGI: > 100 µM
M19-MEL melanoma
  TGI: > 100 µM
NCI-H460 lung
  TGI: > 100 µM
ACHN renal
  TGI: > 100 µM
OVCAR-4 ovarian
  TGI: > 100 µM
NCI-H522 lung
  TGI: 5.36 µM
KM20L2 colon
  TGI: > 74.3 µM
COLO 205 colon
  TGI: > 100 µM
A549 NSCLC
  TGI: > 31.6 µM
SK-OV-3 ovarian
  TGI: > 100 µM
XF 498 CNS
  TGI: > 100 µM
HCT-15 colon
  TGI: > 100 µM
HOP-18 NSCLC
  TGI: > 100 µM
RXF 393 renal
  TGI: > 100 µM
MOLT-4 leukemia
  TGI: > 39.8 µM
HOP-92 NSCLC
  TGI: 80.3 µM
SF-268 CNS
  TGI: > 100 µM
K-562 leukemia
  TGI: > 100 µM
MALME-3M melanoma
  TGI: 68.8 µM
786-0 renal
  TGI: > 100 µM
DMS 273 small cell lung
  TGI: > 45.3 µM
SK-MEL-28 melanoma
  TGI: 97 µM
SK-MEL-5 melanoma
  TGI: > 100 µM
UACC-257 melanoma
  TGI: 96.9 µM
A498 renal
  TGI: 74 µM
HT29 colon
  TGI: > 100 µM
U251 CNS
  TGI: 49.3 µM
SNB-75 CNS
  TGI: > 100 µM
SF-295 CNS
  TGI: > 88.7 µM
TK-10 renal
  TGI: > 100 µM
HCT-116 colon
  TGI: > 79 µM

## C[S+](C)C1(c2ccccc2)C(=O)c2ccccc2C1=O
LOX IMVI melanoma
  TGI: > 72.7 µM
SN12C renal
  TGI: > 100 µM
MCF7 breast
  TGI: > 100 µM
KM12 colon
  TGI: > 100 µM
SNB-19 CNS
  TGI: > 100 µM
LXFL 529 NSCLC
  TGI: > 100 µM
DU-145 prostate
  TGI: > 100 µM
SNB-78 CNS
  TGI: > 100 µM
DLD-1 colon
  TGI: > 100 µM
NCI-H23 lung
  TGI: > 100 µM
NCI-H226 lung
  TGI: > 100 µM
BT-549 breast
  TGI: 35.6 µM
OVCAR-8 ovarian
  TGI: > 100 µM
SF-539 CNS
  TGI: > 68.1 µM
RPMI-8226 leukemia
  TGI: > 100 µM
OVCAR-5 ovarian
  TGI: > 89.7 µM
EKVX NSCLC
  TGI: 76.9 µM
HCC-2998 colon
  TGI: 42.8 µM
SR leukemia
  TGI: > 100 µM
HOP-62 NSCLC
  TGI: > 100 µM
HL-60(TB) leukemia
  TGI: > 31.6 µM
SW-620 colon
  TGI: > 100 µM
UO-31 renal
  TGI: > 56.5 µM
IGROV1 ovarian
  TGI: > 100 µM
NCI/ADR-RES ovarian
  TGI: > 100 µM
CCRF-CEM leukemia
  TGI: > 85.8 µM
OVCAR-3 ovarian
  TGI: > 100 µM
CAKI-1 renal
  TGI: > 100 µM
M14 melanoma
  TGI: > 100 µM
UACC-62 melanoma
  TGI: > 62.7 µM
SK-MEL-2 melanoma
  TGI: > 73.2 µM
M19-MEL melanoma
  TGI: > 100 µM
NCI-H460 lung
  TGI: > 100 µM
PC-3 prostate
  TGI: > 100 µM
T-47D breast
  TGI: 92.1 µM
ACHN renal
  TGI: > 100 µM
OVCAR-4 ovarian
  TGI: > 100 µM
NCI-H522 lung
  TGI: > 68.7 µM
KM20L2 colon
  TGI: > 100 µM
COLO 205 colon
  TGI: > 100 µM
A549 NSCLC
  TGI: 97.7 µM
DMS 114 small cell lung
  TGI: > 100 µM
SK-OV-3 ovarian
  TGI: > 100 µM
XF 498 CNS
  TGI: 94 µM
HCT-15 colon
  TGI: > 100 µM
HOP-18 NSCLC
  TGI: > 100 µM
RXF 393 renal
  TGI: > 100 µM
MOLT-4 leukemia
  TGI: > 100 µM
HOP-92 NSCLC
  TGI: > 100 µM
SF-268 CNS
  TGI: > 100 µM
K-562 leukemia
  TGI: > 100 µM
MDA-MB-435
  TGI: > 100 µM
MALME-3M melanoma
  TGI: > 100 µM
786-0 renal
  TGI: > 100 µM
DMS 273 small cell lung
  TGI: > 100 µM
SK-MEL-28 melanoma
  TGI: > 100 µM
SK-MEL-5 melanoma
  TGI: > 53.5 µM
HS 578T breast
  TGI: 60.8 µM
UACC-257 melanoma
  TGI: > 100 µM
A498 renal
  TGI: > 100 µM
HT29 colon
  TGI: > 100 µM
U251 CNS
  TGI: > 66.3 µM
SNB-75 CNS
  TGI: > 89.2 µM
SF-295 CNS
  TGI: 99.2 µM
TK-10 renal
  TGI: > 100 µM
HCT-116 colon
  TGI: > 100 µM
